Reference: patent US20210386750A1, “METHODS AND MATERIALS FOR TREATING CANCER” (Mayo Foundation for Medical Education and Research, priority 2018, published 2021)
“Also recorded” adds a separate entry of the source.

Assays:
[1] = tested on: PEA1 cells; experiment: Clonogenic (colony formation) assay in PEA1 cells; settings: PEA1, BRCA1 siRNAs, colony formation 8-10 days (FIG. 4B, 14, 22B)
Procedure: OVCAR-8 (A) and PEA1 (B) cells were transfected with control luciferase (Luc) or BRCA1 siRNAs. 48 hours later, the cells were trypsinized, plated in 6-well plates, and subjected to colony formation assays. The indicated concentrations of ceritinib was added 12 hours after plating.

[2] = tested on: OVCAR-8 cells; experiment: Clonogenic (colony formation) assay in OVCAR-8 cells; settings: for Sensitivity of BRCA1-depleted cells to the agent versus control luciferase siRNA cells: OVCAR-8, BRCA1 siRNAs, colony formation 8-10 days (FIG. 4A, 14, 22A); for Sensitization to the agent by NNMT overexpression: OVCAR-8 clones stably expressing Myc-DDK-NNMT versus empty vector, 8-10 days (FIG. 16, 24)
Procedure: A portion of the cells used in A and C were subjected to colony formation assays using olaparib, a PARP inhibitor (as a positive control for HR deficiency).
(A-C) OVCAR-8 and PEA1 cells were transfected with control luciferase (siLuc) or BRCA1 siRNAs. 48 hours later, the cells were trypsinized, immunoblotted for BRCA1 and HSP90 (bottom panels), and subjected to colony formation assays.
The cells were cultured for 8-10 days to allow colony formation.

[3] = tested on: HCT-116 colon cancer cells; experiment: Colony formation assay in HCT-116 colon cancer clones (empty vector or Myc-DDK-NNMT); type: cell-based; settings: HCT-116 Myc-NNMT clones #4, #8, #22 versus empty vector, 8-10 days, n=1 (FIG. 26)
Procedure: Clones of HCT-116 colon cancer cells stably transfected with empty vector (pcDNA3) or the Myc-DDK-NNMT expression plasmid (Myc-NNMT Clone #4, #8, #22) were plated as single cells, allowed to adhere for 12 hours, and then treated with ceritinib. […] Data are means±SEM from triplicate wells, n=1 experiment.
Clonogenic assays were performed as described elsewhere (see, e.g., Wagner et al., Mol. Pharmacol., 76:208-14 (2009)).

| SMILES | Sensitivity of BRCA1-depleted cells to the agent versus control luciferase siRNA cells [1] | Sensitivity of BRCA1-depleted cells to the agent versus control luciferase siRNA cells [2] | Sensitization to the agent by depletion of BRCA2 or RAD51 ([2]; OVCAR-8, BRCA2 or RAD51 siRNAs (FIG. 12B, 12D, 15)) | Sensitization to the agent by NNMT overexpression [2] | Sensitization to the agent by NNMT overexpression [3] |
| --- | --- | --- | --- | --- | --- |
| O=C(Oc1cccc(F)c1OC(=O)c1cccc(O)c1)c1cccc(O)c1 [WZB117] | sensitized | sensitized | – | – | – |
| O=C(c1cc(Cc2n[nH]c(=O)c3ccccc23)ccc1F)N1CCN(C(=O)C2CC2)CC1 [olaparib] | – | – | increased sensitivity; also recorded: did sensitize | – | – |
| CN(C)c1cc(NC(=O)CNC(C)(C)C)c(O)c2c1C[C@H]1C[C@H]3[C@H](N(C)C)C(O)=C(C(N)=O)C(=O)[C@@]3(O)C(O)=C1C2=O [tigecycline] | sensitized | sensitized | – | sensitizes | – |
| Cc1cc(Nc2ncc(Cl)c(Nc3ccccc3S(=O)(=O)C(C)C)n2)c(OC(C)C)cc1C1CCNCC1 [ceritinib] | sensitizes | sensitizes | – | sensitizes | sensitizes |
